Source: ChEMBL document CHEMBL3885861, “Open TG-GATES”

Organism: Rattus norvegicus
Assay: Open TG-GATES - Regimen: Single
Format: toxicity, organism-based, Sprague-Dawley
Parameters: regimen Single, gender Male, age 6 weeks
Conditions: in vivo, po, 1000 mg/kg, route gavage, dose level High; for APTT / Bas / Eos / Fbg / Hb / Ht / Lym / MCH / MCHC / MCV / Mono / Neu / PT / Plat / RBC / Ret / WBC: tissue Blood; for KIDNEY_L / KIDNEY_R / KIDNEY_TOTAL: tissue Kidney; for LIVER: tissue Liver; for A/G / ALP / ALT / AST / BUN / CRE / Ca / Cl / DBIL / GLC / IP / K / LDH / Na / PL / RALB / TBIL / TC / TG / TP / gamma-GTP: tissue Plasma

## Cc1nnc2n1-c1ccc(Cl)cc1C(c1ccccc1Cl)=NC2 [TRIAZOLAM]
3 h
  TERMINAL_BW: 193.6 g
  APTT: 16 s
  Bas: 0%
  Eos: 1%
  Fbg: 277.8 mg/dL
  Hb: 13.8 g/dL
  Ht: 41.7%
  Lym: 72%
  MCH: 20.9 pg
  MCHC: 33.2%
  MCV: 63 fL
  Mono: 3.2%
  Neu: 23%
  PT: 13.4 s
  Plat: 135.1 x10_4/uL
  RBC: 663 x10_4/ul
  Ret: 9.1%
  WBC: 64.9 x10_2/uL
  KIDNEY_L: 0.9 g
  KIDNEY_R: 0.9 g
  KIDNEY_TOTAL: 1.8 g
  LIVER: 8.3 g
  A/G: 0.9
  ALP: 1289.6 IU/L
  ALT: 38.8 IU/L
  AST: 72 IU/L
  BUN: 9.4 mg/dL
  CRE: 0.1 mg/dL
  Ca: 11 mg/dL
  Cl: 102.6 meq/L
  DBIL: 0.008 mg/dL
  GLC: 174.6 mg/dL
  IP: 10.4 mg/dL
  K: 4.3 meq/L
  LDH: 97.8 IU/L
  Na: 139.6 meq/L
  PL: 148.8 mg/dL
  RALB: 2.4 g/dL
  TBIL: 0.064 mg/dL
  TC: 78.2 mg/dL
  TG: 50 mg/dL
  TP: 5.2 g/dL
  gamma-GTP: 1 IU/L
6 h
  TERMINAL_BW: 193.6 g
  APTT: 18.3 s
  Bas: 0%
  Eos: 0.6%
  Fbg: 282 mg/dL
  Hb: 13.9 g/dL
  Ht: 42.3%
  Lym: 75.8%
  MCH: 20.6 pg
  MCHC: 32.8%
  MCV: 62.8 fL
  Mono: 2.2%
  Neu: 20.4%
  PT: 13.5 s
  Plat: 122.7 x10_4/uL
  RBC: 674 x10_4/ul
  Ret: 8.5%
  WBC: 87.5 x10_2/uL
  KIDNEY_L: 0.9 g
  KIDNEY_R: 0.9 g
  KIDNEY_TOTAL: 1.8 g
  LIVER: 8.3 g
  A/G: 0.9
  ALP: 1325.6 IU/L
  ALT: 36 IU/L
  AST: 67.4 IU/L
  BUN: 10 mg/dL
  CRE: 0.1 mg/dL
  Ca: 11.2 mg/dL
  Cl: 103.2 meq/L
  DBIL: 0.012 mg/dL
  GLC: 184.2 mg/dL
  IP: 10.9 mg/dL
  K: 4.5 meq/L
  LDH: 87.2 IU/L
  Na: 141.6 meq/L
  PL: 162.8 mg/dL
  RALB: 2.5 g/dL
  TBIL: 0.056 mg/dL
  TC: 85.4 mg/dL
  TG: 68.2 mg/dL
  TP: 5.3 g/dL
  gamma-GTP: 1.6 IU/L
9 h
  TERMINAL_BW: 192.1 g
  APTT: 16.7 s
  Bas: 0%
  Eos: 0.6%
  Fbg: 282.6 mg/dL
  Hb: 13.3 g/dL
  Ht: 40.5%
  Lym: 74.2%
  MCH: 20.9 pg
  MCHC: 32.8%
  MCV: 63.8 fL
  Mono: 2.4%
  Neu: 21.6%
  PT: 13.9 s
  Plat: 116.9 x10_4/uL
  RBC: 635.4 x10_4/ul
  Ret: 9.5%
  WBC: 86.1 x10_2/uL
  KIDNEY_L: 0.9 g
  KIDNEY_R: 0.9 g
  KIDNEY_TOTAL: 1.8 g
  LIVER: 7.6 g
  A/G: 0.9
  ALP: 1384.4 IU/L
  ALT: 41.8 IU/L
  AST: 73.4 IU/L
  BUN: 9 mg/dL
  CRE: 0.1 mg/dL
  Ca: 10.9 mg/dL
  Cl: 104 meq/L
  DBIL: 0.014 mg/dL
  GLC: 177.8 mg/dL
  IP: 10.6 mg/dL
  K: 4.4 meq/L
  LDH: 84.2 IU/L
  Na: 141 meq/L
  PL: 148 mg/dL
  RALB: 2.5 g/dL
  TBIL: 0.064 mg/dL
  TC: 76.4 mg/dL
  TG: 56.4 mg/dL
  TP: 5.1 g/dL
  gamma-GTP: 1.4 IU/L
24 h
  TERMINAL_BW: 208.3 g
  APTT: 17 s
  Bas: 0.2%
  Eos: 0.8%
  Fbg: 290.2 mg/dL
  Hb: 13.9 g/dL
  Ht: 41.6%
  Lym: 75.4%
  MCH: 20.8 pg
  MCHC: 33.4%
  MCV: 62.2 fL
  Mono: 2.8%
  Neu: 20.4%
  PT: 13 s
  Plat: 128.9 x10_4/uL
  RBC: 669.2 x10_4/ul
  Ret: 8.2%
  WBC: 97.7 x10_2/uL
  KIDNEY_L: 0.9 g
  KIDNEY_R: 0.9 g
  KIDNEY_TOTAL: 1.8 g
  LIVER: 9.9 g
  A/G: 0.9
  ALP: 1921.8 IU/L
  ALT: 44.8 IU/L
  AST: 60.2 IU/L
  BUN: 13.6 mg/dL
  CRE: 0.2 mg/dL
  Ca: 11.5 mg/dL
  Cl: 100.8 meq/L
  DBIL: 0.014 mg/dL
  GLC: 175.6 mg/dL
  IP: 10 mg/dL
  K: 4.3 meq/L
  LDH: 84.4 IU/L
  Na: 141.4 meq/L
  PL: 167.6 mg/dL
  RALB: 2.7 g/dL
  TBIL: 0.058 mg/dL
  TC: 85.2 mg/dL
  TG: 84.2 mg/dL
  TP: 5.6 g/dL
  gamma-GTP: 1 IU/L
